Assay results taken from US10590153B2, “Process for producing crystalline DTPMP” (Zschimmer & Schwarz Mohsdorf GmbH & Co. KG, priority 2014, dated 2020).

What was measured:
Format in all cases: physicochemical
[1] = Determination of the hygroscopicity (gravimetric water absorption in desiccator at constant humidity); conditions: 22±2° C., relative humidity of 55%; for Relative water absorption: determined daily over 12 days
Description: In order to determine the hygroscopicity, solid samples were stored in 25 ml glass beakers in a desiccator under constant humidity. […] The water absorption of the samples was determined gravimetrically once daily over a period of 12 days as the difference in mass (see FIG. 14).
Two spray-dried powders were tested as comparison with crystallisate samples of the crystallisates of the α, β and γ crystal modification.
A DTPMP synthesis product having the quality parameters from Table 4 used as the starting slurry for the crystallisation was spray dried with a Büchi-Mini Spray Dryer B-290.

[2] = Bulk density of the samples used for the hygroscopicity test
[3] = Drying behaviour of crystallisates in dependence on residual moisture and product purity (tempering in sealed vials, visual points classification); parameters: key: 5 points=sample unchanged; 4 points=sample compacted/started to dissolve; 3 points=sample visibly started to dissolve; 2 points=sample cloudy highly viscous solution; 1 point=sample dissolved to clear solution; conditions: sealed vial, shaken
Description: This dependency is shown by the following example for determining the drying behaviour of crystallisates in dependence on residual moisture and product purity.
A DTPMP solid isolated by recrystallisation is characterised by residues of adhering mother liquor via the quality parameters listed in the following table. Determination of the residual moisture content by means of a halogen dryer HB 43 S/Mettler Toledo is carried out isothermally at the indicated temperature using the shutoff criterion 4 (AK4=mean weight loss is <1 mg per 90 seconds):
After a purification step, which consists in suspending the solid in water and then separating it off by means of a filtering centrifuge, the following quality criteria are obtained:
The adhering residual moisture is removed stepwise from these solid samples in a rotary evaporator at 40° C. and 5 mbar vacuum, so that a series of samples with decreasing residual moisture content is prepared from each of the two purity grades (unwashed and washed).
4 ml borosilicate vials are filled with this sample material and the filling level is adjusted to ⅔ of the height of the glass by gentle tapping. In order to minimise evaporative losses, the screw cap of each vial is additionally sealed with a polyethylene film. All the samples are shaken in parallel in a tempering block on a heating and cooling shaker ThermoTwister comfort/Quantifoil Instruments GmbH for a defined period at a defined temperature and then assessed visually. Classification is made according to the following points system: […]

[4] = Temperature 35 °C, test duration 24 h
[5] = Temperature 40 °C, test duration 24 h
[6] = Temperature 45 °C, test duration 24 h
[7] = Temperature 50 °C, test duration 24 h
[8] = Temperature 55 °C, test duration 24 h
[9] = Temperature 60 °C, test duration 24 h
[10] = Temperature 65 °C, test duration 5 h
[11] = Temperature 70 °C, test duration 5 h
[12] = Temperature 75 °C, test duration 5 h
[13] = Temperature 80 °C, test duration 5 h
[14] = Temperature 85 °C, test duration 5 h
[15] = Temperature 90 °C, test duration 5 h

SMILES	Relative water absorption [1] [% by mass/day]	Hygroscopicity / water absorption capacity (in words) ([1]; listed as crystal modification α)	Bulk density [2] [g/mL]	Hygroscopicity / water absorption capacity (in words) ([1]; listed as crystal modification β)	Hygroscopicity / water absorption capacity (in words) [1]	Hygroscopicity / water absorption capacity (in words) ([1]; listed as crystal modification γ)	Visual classification at the end of the tempering step (points system) [3, 4]	Visual classification at the end of the tempering step (points system) [3, 5]	Visual classification at the end of the tempering step (points system) [3, 6]	Visual classification at the end of the tempering step (points system) [3, 7]	Visual classification at the end of the tempering step (points system) [3, 8]	Visual classification at the end of the tempering step (points system) [3, 9]	Visual classification at the end of the tempering step (points system) [3, 10]	Visual classification at the end of the tempering step (points system) [3, 11]	Visual classification at the end of the tempering step (points system) [3, 12]	Visual classification at the end of the tempering step (points system) [3, 13]	Visual classification at the end of the tempering step (points system) [3, 14]	Visual classification at the end of the tempering step (points system) [3, 15]
O=P(O)(O)CN(CCN(CP(=O)(O)O)CP(=O)(O)O)CCN(CP(=O)(O)O)CP(=O)(O)O [Crystal form α, purified quality, diethylenetriamine penta(methylenephosphonic acid)]	0.03	consistently low water absorption	0.36	–	–	–	–	–	–	–	–	–	–	–	–	–	–	–
O=P(O)(O)CN(CCN(CP(=O)(O)O)CP(=O)(O)O)CCN(CP(=O)(O)O)CP(=O)(O)O [Crystal form β, purified quality, diethylenetriamine penta(methylenephosphonic acid)]	0.04	–	0.49	consistently low water absorption	–	–	–	–	–	–	–	–	–	–	–	–	–	–
O=P(O)(O)CN(CCN(CP(=O)(O)O)CP(=O)(O)O)CCN(CP(=O)(O)O)CP(=O)(O)O [Crystal form γ, purified quality, diethylenetriamine penta(methylenephosphonic acid)]	0.003	–	0.59	–	by far the lowest hygroscopicity	consistently low water absorption	–	–	–	–	–	–	–	–	–	–	–	–
O=P(O)(O)CN(CCN(CP(=O)(O)O)CP(=O)(O)O)CCN(CP(=O)(O)O)CP(=O)(O)O [unwashed quality 19 [% by mass] residual moisture]	–	–	–	–	–	–	5	5	5	5	5	4	2	2	2	2	2	2
O=P(O)(O)CN(CCN(CP(=O)(O)O)CP(=O)(O)O)CCN(CP(=O)(O)O)CP(=O)(O)O [unwashed quality 24 [% by mass] residual moisture]	–	–	–	–	–	–	5	5	5	4	4	3	2	1	1	1	1	1
O=P(O)(O)CN(CCN(CP(=O)(O)O)CP(=O)(O)O)CCN(CP(=O)(O)O)CP(=O)(O)O [unwashed quality 31 [% by mass] residual moisture]	–	–	–	–	–	–	5	5	5	5	4	3	1	1	1	1	1	1
O=P(O)(O)CN(CCN(CP(=O)(O)O)CP(=O)(O)O)CCN(CP(=O)(O)O)CP(=O)(O)O [unwashed quality 36 [% by mass] residual moisture]	–	–	–	–	–	–	5	5	5	5	5	3	1	1	1	1	1	1
O=P(O)(O)CN(CCN(CP(=O)(O)O)CP(=O)(O)O)CCN(CP(=O)(O)O)CP(=O)(O)O [unwashed quality 40 [% by mass] residual moisture]	–	–	–	–	–	–	5	5	5	5	5	3	1	1	1	1	1	1
O=P(O)(O)CN(CCN(CP(=O)(O)O)CP(=O)(O)O)CCN(CP(=O)(O)O)CP(=O)(O)O [unwashed quality 47 [% by mass] residual moisture]	–	–	–	–	–	–	5	5	5	5	5	3	1	1	1	1	1	1
O=P(O)(O)CN(CCN(CP(=O)(O)O)CP(=O)(O)O)CCN(CP(=O)(O)O)CP(=O)(O)O [unwashed quality 51 [% by mass] residual moisture]	–	–	–	–	–	–	5	5	5	5	5	2	1	1	1	1	1	1
O=P(O)(O)CN(CCN(CP(=O)(O)O)CP(=O)(O)O)CCN(CP(=O)(O)O)CP(=O)(O)O [washed quality 11 [% by mass] residual moisture]	–	–	–	–	–	–	5	5	5	5	5	5	5	5	5	5	5	5
O=P(O)(O)CN(CCN(CP(=O)(O)O)CP(=O)(O)O)CCN(CP(=O)(O)O)CP(=O)(O)O [washed quality 53 [% by mass] residual moisture]	–	–	–	–	–	–	5	–	–	–	–	–	–	–	–	1	1	1
